Test results from patent publication US4717727A, “Esters of pyridine-2,4- and 2,5-dicarboxylic acid as medicaments for the inhibition of proline hydroxylase and lysine hydroxylase” (Hoechst Aktiengesellschaft, priority 1984, dated 1988).

Legend:
proline hydroxylase [1] = assay: Inhibition of collagen proline hydroxylation in organ culture (isolated calvariae / EHS sarcoma tissue), ratio of 14C-proline to 14C-hydroxyproline; format: cell-based; settings: Inhibition 50 %; incubation with 14C-proline, ratio 14C-proline to 14C-hydroxyproline in extracted collagen; read-out: Conc. giving the stated Inhibition, % (50)
Experimental: Determination of the inhibitory effect is described below.
(a) Tissue of the EHS sarcoma tumor, which produces an extracellular matrix resembling basal membrane and produces, in particular, type IV collagen (Erkin et al., Exp. Med. 145 (1977) 204-220), is incubated in analogy to the method of K. Tryggvason et al. (Biochemistry 19 (1980) 1248-1289) in the presence of ^14 C-proline and of inhibitors in various concentrations. After the incubation has been stopped, the tissue is homogenized and extracted with dilute acetic acid. After NaCl precipitation, the extracted collagen was hydrolyzed with 6 M HCl, and the ratio of ^14 C-proline to ^14 C-hydroxyproline was determined.
(b) Isolated calvariae are incubated in analogy to the method of B. Peterkovsky and R. DiBlasio (Anal. Biochem. 66 (1975) 279-286) in the presence of U-^14 C-proline and inhibitors. After the incubation has been stopped, the calvariae are homogenized, and the collagen is extracted with dilute acetic acid. After hydrolysis of the extract with 6 M HCl, the ratio of ^14 C-proline to ^14 C-hydroxyproline is determined.

proline hydroxylase [2] = molecular target: T1, proline hydroxylase (Gallus gallus, UniProt P16924); settings: cited from earlier work
T1 sequence (P16924 1-516): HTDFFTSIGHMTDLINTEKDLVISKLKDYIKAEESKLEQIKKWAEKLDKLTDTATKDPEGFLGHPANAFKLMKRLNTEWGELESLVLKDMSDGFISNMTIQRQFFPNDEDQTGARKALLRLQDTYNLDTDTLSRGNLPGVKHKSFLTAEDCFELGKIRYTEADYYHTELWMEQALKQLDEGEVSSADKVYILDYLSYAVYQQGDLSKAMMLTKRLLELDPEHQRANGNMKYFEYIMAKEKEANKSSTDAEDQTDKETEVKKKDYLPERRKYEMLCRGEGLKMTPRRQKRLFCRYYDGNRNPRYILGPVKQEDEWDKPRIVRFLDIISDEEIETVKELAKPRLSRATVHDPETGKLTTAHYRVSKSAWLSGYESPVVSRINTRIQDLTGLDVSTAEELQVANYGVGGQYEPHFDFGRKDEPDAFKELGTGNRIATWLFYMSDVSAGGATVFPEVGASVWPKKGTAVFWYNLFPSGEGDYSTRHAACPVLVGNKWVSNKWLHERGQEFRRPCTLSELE
T1 sequence (P09102 23-515 partner): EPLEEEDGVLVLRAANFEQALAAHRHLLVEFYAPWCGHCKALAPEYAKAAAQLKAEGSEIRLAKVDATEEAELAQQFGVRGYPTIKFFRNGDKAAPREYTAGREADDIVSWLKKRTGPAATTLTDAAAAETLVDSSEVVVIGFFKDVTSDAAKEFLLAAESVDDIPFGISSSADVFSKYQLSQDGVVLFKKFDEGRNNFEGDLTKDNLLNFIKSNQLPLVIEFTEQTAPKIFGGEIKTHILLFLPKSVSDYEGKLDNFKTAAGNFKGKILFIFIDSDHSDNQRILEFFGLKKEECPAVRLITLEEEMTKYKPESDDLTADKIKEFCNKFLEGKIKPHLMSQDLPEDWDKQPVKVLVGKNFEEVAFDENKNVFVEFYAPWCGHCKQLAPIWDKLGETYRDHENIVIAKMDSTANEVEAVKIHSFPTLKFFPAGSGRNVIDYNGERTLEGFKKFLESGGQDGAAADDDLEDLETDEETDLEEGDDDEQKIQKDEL

[3] = test system: collagen biosynthesis in cell culture; settings: cited from earlier work
[4] = test system: Clq biosynthesis by macrophages; settings: cited from earlier work

Structure (SMILES)	IC50 (proline hydroxylase [1])	inhibition of proline hydroxylase (proline hydroxylase [2])	inhibitory effectiveness in cell culture [3]	inhibition of Clq biosynthesis by macrophages [4]
CCOC(=O)c1ccnc(C(=O)OCC)c1 [C2 H5 4]	3 µM	–	–	–
CCOC(=O)c1ccc(C(=O)OCC)nc1 [C2 H5 5]	90 µM	–	–	–
O=C(O)c1ccnc(C(=O)O)c1 [H 4]	670 µM	effectively inhibited	effective inhibitors only in very high concentrations	–
O=C(O)c1ccc(C(=O)O)nc1 [H 5]	2100 µM	effectively inhibited	effective inhibitors only in very high concentrations	–
c1ccc(-c2ccccn2)nc1 [α,α'-dipyridyl]	–	–	–	leads to inhibition of Clq biosynthesis
